Where “and” joins values, the source holds several entries; their conditions need not be identical. Equal entries are not always repeated. Marks after values point to notes of the source that are not given here.
What was measured:
[1] = Tissue distribution of OLEA and its metabolites after intragastric administration of ROO containing OLEA (LC-ESI-LTQ-Orbitrap-MS); assay type: in vivo, male Sprague–Dawley rats; settings: for Tissue concentration in heart / Concentration in liver / Concentration in small intestine / Concentration in stomach: mean ± SD; for Detection in heart, spleen, thyroids, lungs, brain, kidney, and skin: 1, 2 and 4.5 h after intragastric OLEA in ROO
Protocol: (§1) In this study, male Sprague–Dawley rats (body weight 227 ± 11 g) were obtained from Envigo RMS Spain SL (Sant Feliu de Codines, Barcelona, Spain). The animals were acclimated for at least 1 week before the initiation of dosing with free access to food and water. They were kept at 22 ± 2 °C in an air-conditioned room on a 12-h light–12-h dark cycle. Before the experiments, the animals were fasted overnight with water available ad libitum. The experiments were performed in compliance with the Animal Experimentation Ethics Committee of the University of Barcelona, Spain and were approved by the Generalitat de Catalunya (trial no. CEEA 124/16 and no. 6435, respectively).
(§2) Before the experiment, the ROO (used as a vehicle to dissolve OLEA for intragastric administration) was analyzed by LC-ESI-LTQ-Orbitrap-MS to make sure it was free of phenolic compounds. The liquid–liquid extraction of phenolic compounds in the ROO was performed following previously described procedures. The chromatographic and mass spectrometer conditions were the same as used for the identification of metabolites (Section 2.6). Once the absence of phenolic compounds was confirmed, the OLEA was added to obtain a final concentration of 0.3 mg/mL. This concentration was chosen based on its concentration in commercial EVOO (around 300 mg/kg), and the daily ingestion recommended by the European Food Safety Authority of at least 5 mg of hydroxytyrosol and its derivatives per 20 g of olive oil.
(§3) The rats were divided into three different groups according to the time of euthanasia: 1 h (n = 4), 2 h (n = 5), and 4.5 h (n = 4). At 0 h, ROO loaded with OLEA standard was supplied to the rats (2.5 mL/300 g body weight) by intragastric administration. Additionally, a control group of rats was maintained under fasting conditions without olive oil ingestion and then similarly euthanized. The gavage volume was established following a good practice guide for substance administration and was lower than the maximum volume of lipid vehicles per kg of rat body weight that prevents elevated plasma corticosterone levels.
(§4) The rats were anesthetized with isoflurane (IsoFlo, veterinaria Esteve, Barcelona, Spain) and euthanized by exsanguinations at the aforementioned time points after the ROO ingestion. Blood samples were collected in EDTA tubes, centrifuged to obtain the plasma (3000× g, 10 min at 4 °C), and stored at −80 °C until analysis. The gastrointestinal tract (including stomach and small intestine), heart, spleen, thyroids, lungs, brain, kidney, and skin were removed from rats at the designated time points. All tissues were washed with saline solution (NaCl 0.9%) and dried with filter paper. In the case of the intestine, the portion removed was 15 cm from 2 cm posterior to the pyloric sphincter, and the intestine was also washed internally by perfusing the isotonic saline solution several times. Rat tissues were accurately weighed and stored at −80 °C until analysis.
(§5) For extraction, all samples were slowly thawed in ice. To avoid compound oxidation, the samples were handled in a room with filtered light and kept on ice throughout. The clean-up of the biological matrix (protein precipitation) was performed using a previously developed method.
A small tissue disruptor (T 10 basic ULTRA-TURRAX®, IKA laboratory technology, Staufen, Germany) was used to homogenize the thawed tissues in a 1:1 ratio (w/v) with water:ACN (1:1 (v/v) with 0.1% ascorbic acid). The samples were then sonicated for 5 min in an ice bath, shaken for 1 min (Vortex-Genie 2) and centrifuged for 10 min (11,000× g, 4 °C). To precipitate the proteins, a volume of 100 µL of the upper layer was blended with cold ACN acidified with formic acid (2%) in a 1:3 (v/v) ratio. After that, the samples were homogenized for 1 min and kept at −20 °C in a freezer for 20 min. Finally, the samples were centrifuged for 10 min (11,000× g, 4 °C) and 100 µL of supernatant was transferred to vials for analysis. […]

[2] = Plasma concentration of OLEA and its metabolites after intragastric administration of ROO containing OLEA (LC-ESI-LTQ-Orbitrap-MS); assay type: in vivo, male Sprague–Dawley rats
Protocol: as §1, §2, §3, §4, §5
Plasma samples were centrifuged for 10 min (11,000× g, 4 °C). Briefly, 100 µL of each sample was deproteinized with ice-cold ACN acidified with formic acid (2%) in a 1:5 (v/v) ratio. The samples were then homogenized for 1 min and kept at −20 °C in a freezer for 20 min. After that, samples were centrifuged (11,000× g, 4 °C, 10 min) and finally, 100 µL of each organic phase was transferred to vials for analysis.
The metabolic profile was determined by analyzing the samples with LC-ESI-LTQ-Orbitrap-MS. […]

[3] = set-up: method as in PMID 21411025; settings: pH 2.0, after 4 h, partial hydrolysis releasing OH-TY; cited from earlier work
[4] = set-up: method as in PMID 21411025; settings: in vivo study with rats; cited from earlier work
[5] = set-up: method as in PMID 30469520, PMID 10745093; settings: moderate lipophilicity; cited from earlier work
[6] = set-up: method as in doi:10.1016/j.jff.2016.01.030; settings: stomach at 1 h, another study; cited from earlier work
[7] = 1 h after intragastric OLEA 0.3 mg/mL in ROO
[8] = small intestine, 1 h after intragastric OLEA 0.3 mg/mL in ROO
[9] = small intestine, 2 h after intragastric OLEA 0.3 mg/mL in ROO
[10] = small intestine, 4.5 h after intragastric OLEA 0.3 mg/mL in ROO
[11] = stomach, 1 h after intragastric OLEA 0.3 mg/mL in ROO
[12] = stomach, 2 h after intragastric OLEA 0.3 mg/mL in ROO
[13] = stomach, 4.5 h after intragastric OLEA 0.3 mg/mL in ROO
[14] = 1 h after intragastric OLEA 0.3 mg/mL in ROO, mean ± SD
[15] = 2 h after intragastric OLEA 0.3 mg/mL in ROO, mean ± SD
[16] = 4.5 h after intragastric OLEA 0.3 mg/mL in ROO, mean ± SD
[17] = 2 h after intragastric OLEA 0.3 mg/mL in ROO
[18] = 4.5 h after intragastric OLEA 0.3 mg/mL in ROO

CC=C(C=O)C(CC=O)CC(=O)OCCc1ccc(O)c(O)c1 (stereo in doubt) [OLEA, Oleacein]
Tissue concentration in heart ([1]; heart, 1 h after acute intake of OLEA (0.3 mg/mL) in ROO): 0.44 ± 0.07 nmol OLEA equivalents/g tissue and 0.44 ± 0.07 ^a nmol OLEA equivalents/g tissue
Tissue concentration in heart ([1]; heart, 2 h after acute intake of OLEA (0.3 mg/mL) in ROO): 0.45 ± 0.04 nmol OLEA equivalents/g tissue and 0.45 ± 0.04 ^a nmol OLEA equivalents/g tissue
Tissue concentration in heart ([1]; heart, 4.5 h after acute intake of OLEA (0.3 mg/mL) in ROO): 0.44 ± 0.06 nmol OLEA equivalents/g tissue and 0.44 ± 0.06 ^a nmol OLEA equivalents/g tissue
Concentrations detected in the heart ([1]; heart, all time points): ≤ 0.5 nmol OLEA equivalents/g tissue
Concentration in liver [1, 7]: 0.28 ± 0.02 nmol OLEA equivalents/g tissue
Concentration in small intestine [1, 8]: 2.24 ± 0.14 ^a nmol OLEA equivalents/g tissue
Concentration in small intestine [1, 9]: 1.69 ± 0.25 ^b nmol OLEA equivalents/g tissue
Concentration in small intestine [1, 10]: 0.51 ± 0.10 ^c nmol OLEA equivalents/g tissue
Decrease of concentration in the small intestine relative to Cmax at 1 h ([1]; small intestine, at 2 h): 25%
Decrease of concentration in the small intestine relative to Cmax at 1 h ([1]; small intestine, at 4.5 h): 77%
Time of Cmax in small intestine ([1]; small intestine, sampling at 1, 2, 4.5 h): 1 h
Concentration in stomach [1, 11]: 8.73 ± 0.29 ^a nmol OLEA equivalents/g tissue
Concentration in stomach [1, 12]: 7.39 ± 0.25 ^b nmol OLEA equivalents/g tissue
Concentration in stomach [1, 13]: 5.77 ± 0.54 ^c nmol OLEA equivalents/g tissue
Decrease of concentration in the stomach relative to Cmax at 1 h ([1]; stomach, at 2 h): 16%
Decrease of concentration in the stomach relative to Cmax at 1 h ([1]; stomach, at 4.5 h): 34%
Time of Cmax in stomach ([1]; stomach, sampling at 1, 2, 4.5 h): 1 h
Concentration in plasma [2, 14]: 1.37 ± 0.20 nmol OLEA equivalents/mL and 1.37 ± 0.20 ^a nmol OLEA equivalents/mL
Concentration in plasma [2, 15]: 0.65 ± 0.07 ^b nmol OLEA equivalents/mL
Concentration in plasma [2, 16]: 0.67 ± 0.10 nmol OLEA equivalents/mL and 0.67 ± 0.10 ^b nmol OLEA equivalents/mL
Time of Cmax in plasma ([2]; sampling at 1, 2, 4.5 h): 1 h
OLEA remaining after incubation at pH 2.0 [3]: about 67%
Degradation in the gastric region [4]: complete degradation

OCCc1ccc(O)c(O)c1 [OH-TY, hydroxytyrosol]
Detection in heart, spleen, thyroids, lungs, brain, kidney, and skin [1]: not detected
Concentration in liver [1, 7]: 3.34 ± 0.08 ^b nmol OLEA equivalents/g tissue
Concentration in liver [1, 17]: 3.83 ± 0.21 ^a nmol OLEA equivalents/g tissue
Concentration in liver [1, 18]: 2.51 ± 0.07 ^c nmol OLEA equivalents/g tissue
Concentration in small intestine [1, 8]: 4.71 ± 0.32 ^a nmol OLEA equivalents/g tissue
Concentration in small intestine [1, 9]: 3.79 ± 0.29 ^b nmol OLEA equivalents/g tissue
Concentration in small intestine [1, 10]: 2.70 ± 0.21 ^c nmol OLEA equivalents/g tissue
Concentration in stomach [1, 11]: 13.37 ± 1.27 ^a nmol OLEA equivalents/g tissue
Concentration in stomach [1, 12]: 7.81 ± 0.69 ^b nmol OLEA equivalents/g tissue
Concentration in stomach [1, 13]: 5.23 ± 0.37 ^c nmol OLEA equivalents/g tissue
Share of the total metabolites identified in plasma ([2]; 1 h): 20%
Share of the total metabolites identified in plasma ([2]; 2 h): 22%
Share of the total metabolites identified in plasma ([2]; 4.5 h): 17%
concentration at 1 h ([2]; male, Sprague-Dawley, rat, oral, 2.5 mg/kg, 1 h after intragastric OLEA 0.3 mg/mL in ROO, mean ± SD): 2110 ± 100 nM
concentration at 2 h ([2]; male, Sprague-Dawley, rat, oral, 2.5 mg/kg, 2 h after intragastric OLEA 0.3 mg/mL in ROO, mean ± SD): 3020 ± 160 nM
concentration at 4.5 h ([2]; male, Sprague-Dawley, rat, oral, 2.5 mg/kg, 4.5 h after intragastric OLEA 0.3 mg/mL in ROO, mean ± SD): 1620 ± 140 nM
logP [5]: ~ 0.9
OH-TY concentration in stomach [6]: 8.75 ± 1.95 nmols/g digesta

elenolic acid [EA]
Detection in heart, spleen, thyroids, lungs, brain, kidney, and skin [1]: not detected
Concentration in liver [1, 7]: 1.07 ± 0.06 ^b nmol OLEA equivalents/g tissue
Concentration in liver [1, 17]: 1.34 ± 0.08 ^a nmol OLEA equivalents/g tissue
Concentration in liver [1, 18]: 0.76 ± 0.02 ^c nmol OLEA equivalents/g tissue
Concentration in small intestine [1, 8]: 1.81 ± 0.05 ^a nmol OLEA equivalents/g tissue
Concentration in small intestine [1, 9]: 0.67 ± 0.08 ^b nmol OLEA equivalents/g tissue
Concentration in small intestine [1, 10]: 0.16 ± 0.02 ^c nmol OLEA equivalents/g tissue
Concentration in stomach [1, 11]: 7.53 ± 0.56 ^a nmol OLEA equivalents/g tissue
Concentration in stomach [1, 12]: 4.07 ± 0.36 ^b nmol OLEA equivalents/g tissue
Concentration in stomach [1, 13]: 1.81 ± 0.13 ^c nmol OLEA equivalents/g tissue
Concentration in plasma [2, 14]: 0.43 ± 0.03 ^b nmol OLEA equivalents/mL
Concentration in plasma [2, 15]: 0.76 ± 0.04 ^a nmol OLEA equivalents/mL
Concentration in plasma [2, 16]: 0.16 ± 0.02 ^c nmol OLEA equivalents/mL
logP [5]: ~ 0.9

Source: PMC8301114, “LC-ESI-LTQ-Orbitrap-MS for Profiling the Distribution of Oleacein and Its Metabolites in Rat Tissues” (Antioxidants, 2021)
